Measurements as given in ChEMBL document CHEMBL1681646 (Bioorg Med Chem Lett, 2011).

Molecular target: T1, Pancreatic triacylglycerol lipase (Sus scrofa, UniProt P00591)
T1 sequence (P00591 whole entry): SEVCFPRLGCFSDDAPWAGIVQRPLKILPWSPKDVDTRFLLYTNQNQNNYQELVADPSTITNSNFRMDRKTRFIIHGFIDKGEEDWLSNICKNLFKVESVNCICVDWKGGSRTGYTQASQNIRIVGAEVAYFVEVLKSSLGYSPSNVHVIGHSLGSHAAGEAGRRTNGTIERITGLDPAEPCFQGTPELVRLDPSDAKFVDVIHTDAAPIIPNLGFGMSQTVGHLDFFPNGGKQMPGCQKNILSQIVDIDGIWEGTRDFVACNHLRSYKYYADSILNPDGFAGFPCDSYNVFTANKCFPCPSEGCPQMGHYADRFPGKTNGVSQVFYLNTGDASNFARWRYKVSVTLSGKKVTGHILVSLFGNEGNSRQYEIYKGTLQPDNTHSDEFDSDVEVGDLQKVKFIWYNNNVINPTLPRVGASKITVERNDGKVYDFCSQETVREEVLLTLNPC
Assay: Inhibition of pig pancreatic lipase assessed as p-NPB hydrolysis […]

SMILES	IC50 [µM]
COc1cc([C@H]2CC(=O)O[C@H]2C)ccc1O (relative stereo) [CURCULACTONE A]	232
COc1cc(C(=O)O)ccc1O [VANILLIC ACID]	> 250

Further lines, results first:

IC50 [µM]	SMILES
12.1	COc1cc([C@@H](O)[C@H](C)O)ccc1O (relative stereo)
9.1	COc1cc([C@H](O)[C@H](C)O)ccc1O (relative stereo)
174	COc1cc(C=O)ccc1O [VANILLIN]
